From patent publication US8524738B2, “Quinolinones and quinoxalinones as antibacterial composition” (Toyama Chemical Co., Ltd., priority 2005, dated 2013)
≈ marks a conversion by molar mass, not a printed value. Counter-ions that a name gives are not always drawn. Like-named read-outs stand apart in the source and are kept apart here.

Assays:
S. aureus Smith = assay: Infection Test: mice infected intraperitoneally with S. aureus Smith; type: in vivo; settings: ICR mice, 5 per group; S. aureus Smith i.p.; 10 mg/kg subcutaneously once at 1 hour after infection; survivors recorded 3 days after infection
Protocol: S. aureus Smith which was grown overnight at 37° C. on Mueller-Hinton agar (MHA) plates were suspended to give a final concentration of 10^9 CFU/mL. The inoculum was prepared by diluting this suspension 10-fold in 1/15 mol/L phosphate buffer (pH 7) containing 5.6% mucin. ICR mice (4 to 4.5 weeks of age, male, 5 mice per group) were intraperitoneally administered with the inoculum (approximately 2×10^7 CFU per mice) to induce infection.
After dissolving the test compounds in 0.1 mol/L hydrochloric acid, 20% 2-hydroxypropyl-β-cyclodextrin (HP-β-CD) or a mixture of 20% HP-β-CD and 0.1 mol/L hydrochloric acid at a proportion of 1:1 was added to give a final concentration of 1 mg/mL. Each of the test compound solutions (10 mg/kg) was subcutaneously administered once to a group of mice at 1 hour after infection. The control group was administered with 10% HP-β-CD. The mice were observed daily and the number of surviving mice in each group was recorded 3 days after infection.

[1] = system: Methicillin-resistant Staphylococcus aureus (S. aureus F-3095); assay: Sensitivity Test 2: antibacterial activity (MIC) by micro-dilution method; type: cell-based
Protocol: (§1) Test compounds were initially dissolved in dimethylsulfoxide. Antibacterial activities (MICs) of the same compounds were determined by the micro-dilution method as recommended by the Japanese Society of Chemotherapy.
(§2) Staphylococcus aureus (S. aureus FDA209P) was used as the test organism. The bacterial cells were grown overnight at 35° C. on Mueller-Hinton agar (MHA) plates. The bacterial cells were then suspended in sterile saline and adjusted to the turbidity of a 0.5 McFarland standard. The inoculum was prepared by 10-fold dilution of this suspension. Approximately 0.005 mL aliquots of the inoculum prepared above were subsequently inoculated into Cation-adjusted Mueller-Hinton broth (CAMHB, 100 μL/well) including the test compounds for overnight incubation at 35° C.
Methicillin-resistant Staphylococcus aureus (S. aureus F-3095) was used as the test organism. Antibacterial activities (MICs) were determined in the same manner as in Test Example 1.

Vero cells = assay: Cytotoxicity Test (XTT) on Vero cells; type: cell-based; settings: 51.2 μg/mL of test compound, 3 days at 37° C., XTT absorbance ratio of treated to untreated well
Protocol: Test compounds were initially dissolved in dimethylsulfoxide. […]. After incubation, absorbance was read at 450 nm and 655 nm in a spectrophotometric microplate reader. The values were expressed as the ratio between the value for the well treated with 51.2 μg/mL of each test compound and the value for the well untreated with the test compound (T/C).

[2] = system: Staphylococcus aureus (S. aureus FDA209P); assay: Sensitivity Test 1: antibacterial activity (MIC) by micro-dilution method; type: cell-based
Protocol: as §1, §2

[3] = Methicillin-resistant S. aureus F-3095, same manner as in Test Example 1, read-out: MIC
[4] = S. aureus FDA209P, CAMHB, overnight incubation at 35° C., lowest concentration with virtually no growth, read-out: MIC

`O=c1cnc2ccc(F)cc2n1CCN1CCC(NCc2cc3c(cn2)OCCO3)CC1` [Example 352, 1-(2-(4-((2,3-dihydro-1,4-dioxino[2,3-c]pyridin-7-yl)methylamino)piperidin-1-yl)ethyl)-7-fluoroquinoxalin-2(1H)-one hydrochloride] was tested, and the “Number of surviving mice” value (S. aureus Smith) was 5, the MIC [1] was 0.0313 µg/mL and the T/C (Vero cells) was >50%. For the same compound, the MIC ([2]; FDA209P) was 0.0156 µg/mL.
`COc1ccc2ncc(=O)n(CCN3CCC(NCc4cc5c(cn4)OCCO5)CC3)c2c1` [Example 359, 1-(2-(4-((2,3-dihydro-1,4-dioxino[2,3-c]pyridin-7-yl)methylamino)piperidin-1-yl)ethyl)-7-methoxy-quinoxalin-2(1H)-one hydrochloride] was tested, and the “Number of surviving mice” value (S. aureus Smith) was 5, the MIC [1] was 0.0313 µg/mL and the T/C (Vero cells) was >50%. For the same compound, the MIC ([2]; FDA209P) was 0.0313 µg/mL.
With `O=C1CSc2ccc(CNC3CCN(CCn4c(=O)cnc5ccc(F)cc54)CC3)nc2N1` [Example 369, 7-fluoro-1-(2-(4-((3-oxo-3,4-dihydro-2H-pyrido[3,2-b][1,4]thiazin-6-yl)methylamino)piperidin-1-yl)ethyl)quinoxalin-2(1H)-one hydrochloride] the “Number of surviving mice” value (S. aureus Smith) was 5, the MIC [1] was 0.0313 µg/mL and the T/C (Vero cells) was >50%. It also gave an MIC ([2]; FDA209P) of 0.0313 µg/mL.
For `COc1ccc2ncc(=O)n(CCN3CCC(NCc4ccc5c(c4)NC(=O)CO5)CC3)c2c1` [Example 90, 6-(((1-(2-(7-methoxy-2-oxoquinoxaline-1-(2H)-yl)ethyl)piperidin-4-yl)amino)methyl)-2H-1,4-benzooxazine-3(4H)-one], the “Number of surviving mice” value (S. aureus Smith) was 5, the MIC [1, 3] was 0.0625 µg/mL (≈ 0.135 µM) and the T/C (Vero cells) was >50%. The MIC [2, 4] was 0.0313 µg/mL (≈ 0.0675 µM).
`COCCNC(=O)c1cc(=O)n(CCN2CCC(NCc3ccc4c(c3)OCCO4)CC2)c2cc(OC)ccc12` [Example 141, 1-(2-(4-((2,3-dihydro-1,4-benzodioxin-6-ylmethyl)amino)piperidin-1-yl)ethyl)-7-methoxy-N-(2-methoxyethyl)-2-oxo-1,2-dihydroquinoline-4-carboxamide hydrochloride] was tested, and the “Number of surviving mice” value (S. aureus Smith) was 5, the MIC [1] was 0.25 µg/mL and the T/C (Vero cells) was >50%. It also gave an MIC ([2]; FDA209P) of 0.125 µg/mL.
For `CNC(=O)c1cc(=O)n(CCN2CCC(NCc3ccc4c(c3)OCCO4)CC2)c2cc(OC)ccc12` [Example 25, 1-(2-(4-((2,3-dihydro-1,4-benzodioxin-6-ylmethyl)amino)piperidin-1-yl)ethyl)-7-methoxy-N-methyl-2-oxo-1,2-dihydroquinoline-4-carboxamide], the “Number of surviving mice” value (S. aureus Smith) was 5, the MIC [1, 3] was 0.125 µg/mL (≈ 0.247 µM) and the T/C (Vero cells) was >50%. It also gave an MIC [2, 4] of 0.0625 µg/mL (≈ 0.123 µM).
In the case of `CNC(=O)c1cc(=O)n(CCN2CCC(NCc3cc(-c4cccs4)on3)CC2)c2cc(OC)ccc12` [Example 341, 7-methoxy-N-methyl-2-oxo-1-(2-(4-((5-(thiophen-2-yl)isoxazol-3-yl)methylamino)piperidin-1-yl)ethyl)-1,2-dihydroquinoline-4-carboxamide hydrochloride], the “Number of surviving mice” value (S. aureus Smith) is reported as 5, the MIC [1] is reported as 0.0625 µg/mL and the T/C (Vero cells) is reported as >50%. For the same compound, the MIC ([2]; FDA209P) was 0.0313 µg/mL.
